Patent US12358890B2, “Substituted tetrahydroisoquinoline derivative as a D1 positive allosteric modulator” (UCB Biopharma SRL, priority 2019, dated 2025)
pEC50: −log10 of the molar value.

Tests used:
dopamine D1 receptor = molecular target: T1, dopamine D1 receptor (Homo sapiens, UniProt P21728); experiment: cAMP HTRF potentiation assay (in the presence of EC20 dopamine); assay type: cell-based; settings: for pEC50: potentiation of cAMP levels with EC20 dopamine (1.1 nM), LMtk (Ltk-) mouse fibroblast cells expressing the dopamine D1 receptor; for Emax: with EC20 dopamine, dopamine maximum = 100%, read-out: Erel (relative efficacy, maximal % potentiation relative to dopamine maximal response)
T1 construct: host or cells: LMtk (Ltk-) mouse fibroblast cells
Text: Assays have been designed to measure the effects of compounds in accordance with the present invention in the absence of dopamine (“activation assay”) and in the presence of dopamine (“potentiation assay”).
The potentiation assay measures the ability of compounds to increase the levels of cAMP produced by a low-threshold concentration of dopamine. The concentration of dopamine used ([EC20]) is designed to produce 20% stimulation compared to the maximal response (100%) seen with increasing the concentration of dopamine. To measure this potentiation increasing concentrations of the compound with the [EC20] of dopamine are incubated and the potentiation is measured as increases in cAMP production and concentration of compound which produces 50% of the potentiation of the cAMP levels is measured.
• a. METHODS D1 Cell Culture Cells were cultured at 37° C. in a humidified atmosphere of 5% CO2. Cells were grown in DMEM-F12+GlutaMAX™-I medium (GIBCO®, Invitrogen, Merelbeke, Belgium) containing 10% fetal bovine serum (BioWhittaker®, Lonza, Verviers, Belgium), 400 μg/mL Geneticin (GIBCO®), 100 IU/mL Penicillin and 100 IU/mL Streptomycin (Pen-Strep solution, BioWhittaker®). […] Using homogenous time-resolved fluoresence technology, the assay is based on competition between native cAMP produced by cells and cAMP labelled with the dye d2. The tracer binding is determined by an anti-cAMP antibody labeled with cryptate. The effects of the compound alone (agonism) was determined by performing the assay in the absence of dopamine, whilst the effect of the compound as a positive allosteric modulator (PAM) was determined in the presence of an EC20 concentration of dopamine. Cells (20,000 per well) are incubated in 384 plates for 1 hour at room temperature in a final volume of 20 μL HBSS (Lonza, with calcium, magnesium and HEPES buffer 20 mM, pH 7.4) containing: isobutyl methylxanthine (Sigma, 0.1 mM final), varying concentrations of test compound (typically 10^−9.5M to 10^−4.5M) in the presence and absence of dopamine (1.1 nM final). The reaction is then terminated and the cells lysed by adding the d2 detection reagent in lysis buffer (10 microL) and the cryptate reagent in lysis buffer (10 microl) according to manufacturer's instructions. This is then incubated for a further 60 min at room temperature and changes in HTRF fluorescent emission ratio determined according to manufacturer's instructions using an Envision plate reader (Perkin Elmer, Zaventem, Belgium) with laser excitation. All incubations were performed in duplicate and results were compared to a concentration-effect curve to dopamine. (10^−11M to 10^−6M). • c. […]

[1] = molecular target: T2, human GABAA (α1β2γ2) channels (Homo sapiens, UniProt P14867+P18507+P47870); experiment: Automated patch clamp studies on the GABAA receptor (IonFlux HT, CHO-K1 cells); assay type: cell-based; settings: compound at 10 μM, GABA 15 μM as agonist, read-out: percentage of inhibition of the GABAA receptor
T2 construct: expressed in transfected cells; host or cells: CHO-K1 cells

[2] = Intrinsic clearance in cryopreserved human hepatocyte suspension (Azamulin Assay); assay type: in vitro ADME
Description: The clearance is generally evaluated by using hepatocyte incubations and scaling calculations, assuming the main elimination pathway is metabolism, according to protocols described herein. The intrinsic clearance evaluated from hepatocytes is expressed in μl/min/10^6 cells.
To this aim, cryopreserved human microsomes (pooled donors) are divided on a 48 well collagen coated plate so that the final concentration is 0.25 mg/ml. The UCB compound is then added in the wells at 1 μM and 20 μM concentration in duplicate. After 30 minutes incubation, midazolam is added at 2.5 μM concentration. After 15 minutes, an aliquot is removed and placed into an equal volume of methanol containing internal standard. The samples are centrifuged at 2500 rpm at 4° C. for 20 min. An aliquot of supernatant is diluted with deionised water and levels of 1-hydroxymidazolam is quantified using generic LC MS/MS methods. The concentrations are compared to those obtained after midazolam incubation at the same concentration but without UCB compound pre-incubation. The results are expressed as % of inhibition. […]
Samples are analyzed by LC-MS-MS bioanalytical method to measure the concentration of UCB compound. The concentration versus time profile is fitted to determine the intrinsic clearance (Clint) expressed as μl/min/10^6 cells.

CYP3A4 = molecular target: T3, CYP3A4 (Homo sapiens, UniProt P08684); experiment: In vitro assessment of CYP3A4 inhibition potential using cryopreserved human microsomes (midazolam substrate); assay type: in vitro ADME; settings: cryopreserved human microsomes (pooled donors), probe midazolam 2.5 μM, read-out: percentage of inhibition of CYP3A4
T3 construct: cryopreserved human microsomes (pooled donors) are divided on a 48 well collagen coated plate; from tissue; host or cells: cryopreserved human microsomes (pooled donors)
Description: The objective of the human microsome assay is to characterize the inhibition potential of Compound of formula (I) by measuring the CYP3A4 activities after its co-incubation with midazolam, a specific CYP3A4 substrate.
To this aim, cryopreserved human microsomes (pooled donors) are divided on a 48 well collagen coated plate so that the final concentration is 0.25 mg/ml. The UCB compound is then added in the wells at 1 μM and 20 μM concentration in duplicate. After 30 minutes incubation, midazolam is added at 2.5 μM concentration. After 15 minutes, an aliquot is removed and placed into an equal volume of methanol containing internal standard. The samples are centrifuged at 2500 rpm at 4° C. for 20 min. An aliquot of supernatant is diluted with deionised water and levels of 1-hydroxymidazolam is quantified using generic LC MS/MS methods. The concentrations are compared to those obtained after midazolam incubation at the same concentration but without UCB compound pre-incubation. The results are expressed as % of inhibition. […] Azamulin Assay Cryopreserved human hepatocytes (pool of 20 donors, BSU batch from Celsis/IVT/Bioreclamation) were thawed accordingly the provider's information. Viability (trypan blue exclusion) was higher than 75%. […]

T1 sequence (P21728 whole entry, species assumed): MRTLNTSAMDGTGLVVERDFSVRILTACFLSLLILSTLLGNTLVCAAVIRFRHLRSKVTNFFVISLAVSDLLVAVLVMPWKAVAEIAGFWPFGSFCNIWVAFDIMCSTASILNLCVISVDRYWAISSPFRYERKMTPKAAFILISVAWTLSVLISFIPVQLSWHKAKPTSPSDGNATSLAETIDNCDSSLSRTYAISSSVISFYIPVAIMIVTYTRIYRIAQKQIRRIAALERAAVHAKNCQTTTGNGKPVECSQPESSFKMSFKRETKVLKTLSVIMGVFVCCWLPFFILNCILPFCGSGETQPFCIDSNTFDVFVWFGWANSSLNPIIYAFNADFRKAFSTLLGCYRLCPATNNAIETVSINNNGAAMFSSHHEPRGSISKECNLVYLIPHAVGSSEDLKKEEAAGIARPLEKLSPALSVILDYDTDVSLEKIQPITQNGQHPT
T2 sequence (P14867 28-456): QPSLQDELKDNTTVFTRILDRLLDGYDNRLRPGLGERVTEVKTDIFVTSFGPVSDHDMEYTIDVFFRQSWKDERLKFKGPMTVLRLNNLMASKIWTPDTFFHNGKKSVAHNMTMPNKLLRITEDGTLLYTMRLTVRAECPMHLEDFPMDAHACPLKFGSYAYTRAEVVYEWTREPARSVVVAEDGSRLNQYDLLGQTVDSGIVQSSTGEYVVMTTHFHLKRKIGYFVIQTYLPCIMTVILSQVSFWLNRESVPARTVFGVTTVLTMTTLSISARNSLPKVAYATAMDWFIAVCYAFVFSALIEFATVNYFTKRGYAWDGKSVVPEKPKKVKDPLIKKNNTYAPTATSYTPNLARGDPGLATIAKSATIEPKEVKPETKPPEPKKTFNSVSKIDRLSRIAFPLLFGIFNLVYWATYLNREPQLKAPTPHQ
T2 sequence (P47870 25-512 limits assumed): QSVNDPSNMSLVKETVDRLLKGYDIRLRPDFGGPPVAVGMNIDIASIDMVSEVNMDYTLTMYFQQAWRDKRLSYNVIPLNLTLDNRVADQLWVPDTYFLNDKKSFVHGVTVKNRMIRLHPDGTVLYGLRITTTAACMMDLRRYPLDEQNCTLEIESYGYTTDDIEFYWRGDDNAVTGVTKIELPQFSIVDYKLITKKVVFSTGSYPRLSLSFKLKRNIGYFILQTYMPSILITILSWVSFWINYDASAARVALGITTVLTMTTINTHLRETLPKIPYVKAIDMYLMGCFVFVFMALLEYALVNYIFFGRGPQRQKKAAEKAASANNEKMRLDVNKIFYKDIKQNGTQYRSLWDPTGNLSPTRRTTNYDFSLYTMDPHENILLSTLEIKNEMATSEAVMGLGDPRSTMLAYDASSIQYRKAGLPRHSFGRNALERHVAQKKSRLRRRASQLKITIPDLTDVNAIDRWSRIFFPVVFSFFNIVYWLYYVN
T2 sequence (P18507 40-475): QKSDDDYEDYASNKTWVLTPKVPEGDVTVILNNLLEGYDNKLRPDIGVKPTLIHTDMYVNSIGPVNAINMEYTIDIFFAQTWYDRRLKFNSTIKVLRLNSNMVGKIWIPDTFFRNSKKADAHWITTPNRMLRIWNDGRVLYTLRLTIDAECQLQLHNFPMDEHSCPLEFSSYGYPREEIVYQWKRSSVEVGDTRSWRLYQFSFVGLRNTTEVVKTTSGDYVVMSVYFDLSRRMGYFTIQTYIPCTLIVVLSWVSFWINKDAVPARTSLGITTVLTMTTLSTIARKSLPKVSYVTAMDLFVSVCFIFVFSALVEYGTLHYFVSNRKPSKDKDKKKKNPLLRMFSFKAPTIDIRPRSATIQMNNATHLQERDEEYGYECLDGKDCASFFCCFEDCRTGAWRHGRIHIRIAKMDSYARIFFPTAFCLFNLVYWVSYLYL
T3 sequence (P08684 whole entry): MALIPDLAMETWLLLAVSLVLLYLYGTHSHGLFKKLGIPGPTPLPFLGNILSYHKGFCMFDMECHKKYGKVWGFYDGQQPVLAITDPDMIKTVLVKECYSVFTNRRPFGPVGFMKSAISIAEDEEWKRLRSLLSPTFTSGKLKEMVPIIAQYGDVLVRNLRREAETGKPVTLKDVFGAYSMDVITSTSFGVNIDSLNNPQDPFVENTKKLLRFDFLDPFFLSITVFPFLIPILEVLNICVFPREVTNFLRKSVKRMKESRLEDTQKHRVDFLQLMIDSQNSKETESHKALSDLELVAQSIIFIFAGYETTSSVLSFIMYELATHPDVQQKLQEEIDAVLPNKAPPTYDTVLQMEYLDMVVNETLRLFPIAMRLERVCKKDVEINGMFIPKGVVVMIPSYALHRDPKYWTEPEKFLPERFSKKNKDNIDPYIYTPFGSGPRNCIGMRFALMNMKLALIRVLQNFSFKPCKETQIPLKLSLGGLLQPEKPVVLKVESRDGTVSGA

Q: Which results are given for `CC1c2cccc(C(C)(O)CF)c2CCN1C(=O)Cc1c(Cl)cnc(CO)c1Cl` (stereo not shown) [(Ib)]?
A: pEC50 (dopamine D1 receptor): ~6.70; Emax (dopamine D1 receptor): ~61%; inhibition at 10 µM [1]: ~20%; hepatocyte CLint at 0.5 μM [2]: ~9.2 µL/min/1e6 cells

Q: With `C[C@H]1c2cccc([C@](C)(O)CF)c2CCN1C(=O)Cc1c(Cl)cnc(CO)c1Cl` [compound of formula (Ia), 2-[3,5-dichloro-2-(hydroxymethyl)-4-pyridyl]-1-[(1S)-5-[(1S)-2-fluoro-1-hydroxy-1-methyl-ethyl]-1-methyl-3,4-dihydro-1H-isoquinolin-2-yl]ethanone] as the molecule, how does the pEC50 (dopamine D1 receptor) read?
A: Its pEC50 is ~6.90.

Q: And the Emax (dopamine D1 receptor)?
A: Its Emax is ~64%.

Q: What about the inhibition at 10 µM [1] of the same molecule?
A: Its inhibition at 10 µM is ~13%.

Q: What about the inhibition at 15 min, 1 μM (CYP3A4; compound at 1 μM) of the same molecule?
A: The inhibition at 15 min, 1 μM was ~20%.

Q: And the inhibition at 15 min, 20 μM (CYP3A4; compound at 20 μM)?
A: Its inhibition at 15 min, 20 μM is ~28%.

Q: And the hepatocyte CLint at 0.5 μM [2]?
A: The hepatocyte CLint at 0.5 μM was ~8.8 µL/min/1e6 cells.
